Laboratory results: patent US10023565B2, “N,N′ substituted piperidinamine compounds, and preparation method and usage thereof” (Institute of Pharmacology and Toxicology Academy of …, priority 2013, dated 2018)

Assays:
[1] = tested on: six human breast cancer cell strains; assay: Antitumor activity evaluation, statements on the whole panel; assay type: cell-based; conditions: compound alone
From the text: In antitumor activity evaluation, six human breast cancer cell strains are selected, including BT474, SK-BR3 which are human breast cancer cell strains sensitive to lapatinib, BT/Lap^R1.0, SK/Lap^R1.0 which are human breast cancer cell strains with secondary resistance to lapatinib, MDA-MB-361, MDA-MB-453 which are human breast cancer cell strains with natural resistance tolapatinib.
Antitumor bioactivity evaluation of the compounds of Examples according to the method described below
Cells plating: a 100 mm culture dish with overgrown adherent cells was digested with 1 ml 0.25% trypsin (GIBCO) at 37° C. for 5 min, and the reaction was terminated with 2 ml culture medium (containing 10% FBS, GIBCO). The cells were scattered and collected, after counting, diluted to 1×10^5 cells/ml, and seeded into a 96-well plate at 50 μl/well, 5000 cells/well, excluding the peripheral circle of wells in which no cell was added, but PBS was added, 60 wells in total, and then incubated at 37° C. for 24 hours for adhering.
Addition of the compound and lapatinib: the test sample was diluted to a final concentration of 5 μM, and the culture medium with the corresponding compound solvent concentration was filled in the control well, the compound solvent concentration was kept consistent in each well, 5 parellel wells were set for each concentration, 25 μl each well, 25 μl culture medium (in combined group, 25 μl lapatinib was added till a final concentration of 1 μM) supplemented, followed by incubation at 37° C. for 72 hours.
Test after incubation at 37° C. for 72 hours: 50 μL of ATPlite kit substrate solution was added in each well, and vibrated for 3 min, followed by placing aside in darkness for 10 min, and then supernatant 100 μl/well was taken and placed on aluminescence test plate; the luminescence test plate that has been fully incubated was placed in a luminescence test instrument, to read luminescence value.
1. Cell survival rate (%)=Experimental group RLU/control group RLU×100%. The experimental data were subjected to data analysis and processing by utilizing GraphPad software.

[2] = tested on: tumor cells and normal cells (12 kinds of cells); assay: Extended test against tumor cell lines, statements on the whole panel; assay type: cell-based
Procedure: (§1) The compounds of Examples 36/37/40/47/49 were used to carry out extended test against tumor cell lines, wherein 12 kinds of cells were selected, including liver cancer cells, gastric cancer cells, pancreatic cancer cells, colorectal cancer cells, lung cancer cells and normal cells, which were shown in Table 12:
(§2) A 100 mm culture dish with overgrown adherent cells was digested with 1 ml 0.25% trypsin (GIBCO) at 37° C. for 5 min, and the reaction was terminated with 2 ml culture medium (containing 10% FBS, GIBCO). The cells were scattered and collected, after counting, diluted to 1×10^5 cells/ml, and seeded into a 96-well plate at 50 μl/well, 5000 cells/well, excluding the peripheral circle of wells in which no cell was added, but PBS was added, 54 wells in total, and then incubated at 37° C. for 24 hours for adhering.
(§3) The test sample was diluted to final concentration of 4, 1, 0.25, 0.063, 0.016 μM, culture medium was filled in control well, 3 parellel wells were set for each concentration, 50 μl each well, followed by incubation at 37° C. for 72 hours.
(§4) 3) Test after incubation at 37° C. for 72 hours: 50 μL of ATPlite kitsubstrate solution was added in each well, and vibrated for 3 min, followed by placing aside in darkness for 10 min, and then supernatant 100 μl/well was taken and placed on a luminescence test plate; the luminescence test plate that has been fully incubated was placed in a luminescence test instrument, to read luminescence value.
(§5) Cell survival rate (%)=Experimental group RLU/control group RLU×100%. The experimental data were subjected to data analysis and processing by utilizing GraphPad software.

[3] = tested on: COLO205; assay: Extended test against tumor cell lines (ATPlite); assay type: cell-based; conditions: COLO205 (colorectal cancer), 72 hours
Procedure: as §1, §2, §3, §4, §5

[4] = tested on: HepG2; assay: Extended test against tumor cell lines (ATPlite); assay type: cell-based; conditions: HepG2 (liver cancer), 72 hours
Procedure: as §1, §2, §3, §4, §5

[5] = tested on: WI-38 (human embryonic lung fibroblast); assay: Extended test against tumor cell lines (ATPlite); assay type: cell-based; conditions: WI-38 (normal cells), 72 hours
Procedure: as §1, §2, §3, §4, §5

[6] = tested on: Huh-7; assay: Extended test against tumor cell lines (ATPlite); assay type: cell-based; conditions: Huh-7 (liver cancer), 72 hours
Procedure: as §1, §2, §3, §4, §5

[7] = tested on: MRC5 (lung epithelial fibroblast); assay: Extended test against tumor cell lines (ATPlite); assay type: cell-based; conditions: MRC5 (normal cells), 72 hours
Procedure: as §1, §2, §3, §4, §5

[8] = tested on: H460; assay: Extended test against tumor cell lines (ATPlite); assay type: cell-based; conditions: H460 (lung cancer), 72 hours
Procedure: as §1, §2, §3, §4, §5

[9] = tested on: BT/Lap^R1.0; assay: Antitumor bioactivity evaluation, breast cancer cells (ATPlite); assay type: cell-based, human; conditions: Homo sapiens
Method in brief: (§6)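 Cells seeded at 5000/well, allowed to adhere 24 h at 37° C, then treated with test compound at final 5 μM, alone or combined with lapatinib at final 1 μM, for 72 h at 37° C. ATPlite luminescence read; survival rate = treated RLU/control RLU × 100%.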

[10] = tested on: BT474; assay: as above; assay type: cell-based; conditions: Homo sapiens, BT-474
Method in brief: as §6

[11] = tested on: MDA-MB-361; assay: as above; assay type: cell-based; conditions: Homo sapiens, test sample 5 μM, 72 hours, read-out: Inhibitory Rate % MDA-MB-361
Method in brief: as §6

[12] = tested on: SK/Lap^R1.0; assay: as above; assay type: cell-based; conditions: Homo sapiens; test sample 5 μM, 72 hours; read-out: Inhibitory Rate % SKLap^R1.0
Method in brief: as §6

[13] = tested on: MDA-MB-453; assay: as above; assay type: cell-based; conditions: Homo sapiens, test sample 5 μM, 72 hours, read-out: Inhibitory Rate % MDA-MB-453
Method in brief: as §6

[14] = tested on: SK-BR3; assay: as above; assay type: cell-based; conditions: Homo sapiens, SK-BR-3; test sample 5 μM, 72 hours; read-out: Inhibitory Rate % SK-BR3
Method in brief: as §6

For CSc1nccc(N2CCC(N(C)Cc3ccccc3Cl)CC2)n1 [Example 47, N-methyl-N-(2-chlorobenzyl)-N-[1-(2-methylthiopyrimidin-4-yl)piperidin-4-yl]amine], the “growth inhibition to the six human breast cancer cell strains” value [1] was “relatively significant growth inhibition”, the “inhibition of tumor cells versus cytotoxicity to normal cells” value ([2]; 12 kinds of cells, 0.016-4 μM, 72 hours) was “slightly stronger inhibition to liver cancer than that to other tumor cells, and exhibited cytotoxicity to normal cells lower than inhibition to tumor cells” and the “effect compared with the compounds of other Examples” value ([2]; Examples 36/37/40/47/49 compared) was “effect superior to that of the compounds of other Examples”. It also gave a Survival rate ([3]; 0.016 μM) of 98.2%, a Survival rate ([3]; 0.063 μM) of 96.7% and a Survival rate ([3]; 0.25 μM) of 97.9%. It also gave a Survival rate ([3]; 1 μM) of 96.1%, a Survival rate ([3]; 4 μM) of 23.3% and a Survival rate ([4]; 0.016 μM) of 103.1%. It also gave a Survival rate ([4]; 0.063 μM) of 102.7%, a Survival rate ([4]; 0.25 μM) of 96% and a Survival rate ([4]; 1 μM) of 71.4%. For the same molecule, the Survival rate ([4]; 4 μM) was 7.3%, the Survival rate ([5]; 0.016 μM) was 102.1% and the Survival rate ([5]; 0.063 μM) was 99.7%. The Survival rate ([5]; 0.25 μM) was 100.4%, the Survival rate ([5]; 1 μM) was 95.1% and the Survival rate ([5]; 4 μM) was 82.1%. For the same molecule, the Survival rate ([6]; 0.016 μM) was 91.1%, the Survival rate ([6]; 0.063 μM) was 88.3% and the Survival rate ([6]; 0.25 μM) was 81.4%. It also gave a Survival rate ([6]; 1 μM) of 65.9%, a Survival rate ([6]; 4 μM) of 16.7% and a Survival rate ([7]; 0.016 μM) of 97.3%. It also gave a Survival rate ([7]; 0.063 μM) of 99.5%, a Survival rate ([7]; 0.25 μM) of 100.3% and a Survival rate ([7]; 1 μM) of 92.6%. For the same molecule, the Survival rate ([7]; 4 μM) was 74.8%, the Survival rate ([8]; 0.016 μM) was 99% and the Survival rate ([8]; 0.063 μM) was 99.8%. For the same molecule, the Survival rate ([8]; 0.25 μM) was 99.3%, the Survival rate ([8]; 1 μM) was 90.6% and the Survival rate ([8]; 4 μM) was 33.8%. It also gave an IC50 [9] of 1700 nM, an inhibition at 5 µM ([9]; test sample 5 μM, 72 hours, read-out: Inhibitory Rate % BT/Lap^R1.0) of 58.1% and an IC50 [10] of 1990 nM. It also gave an inhibition at 5 µM ([10]; test sample 5 μM, 72 hours, read-out: Inhibitory Rate % BT474) of 60.4%, an inhibition at 5 µM [11] of 27.7% and an inhibition at 5 µM [12] of 16.6%. It also gave an inhibition at 5 µM [13] of 66.2% and an inhibition at 5 µM [14] of 31.7%.
